Experimental data: article PMC5818060 (Journal of Cell Science, 2018)
Ends that are not written are not given here. Peptide text beside a SMILES is read from it. * marks the point of attachment. Biotin = O=C1N[C@H]2[C@H](CS[C@H]2CCCCC(=O)*)N1

Assays:
[1] = tested on: endogenous CK1 / CK1 sensor in HEK293T cells; assay: CK1 FRET biosensor, microplate reader FRET/CFP ratio; type: cell-based, human; conditions: HEK293T with CK1 sensor; for effect of transfected peptide on FRET/CFP ratio (endogenous CK1 activity): peptide transfected (Metafectene), analyzed 1.5 h after peptide transfection, n=3; for size of reduction of CK1 biosensor activity relative to CK1-specific small-molecule inhibitors or DDX3X siRNA: transfected peptide
Procedure: HEK293T cells were seeded at a density of 20,000 cells/well on 96-well black microplates (PS, μClear, clear bottom, chimney well, Greiner No. 655090). Transfection was performed as described above. Unless indicated otherwise, the respective cell populations were transfected with 50-100 ng CK1 FRET biosensor, 100 ng regulator (i.e. N-Flag DDX3X) and 1-10 ng kinase (i.e. N-Flag CK1ε). Either empty pCS2 N-Flag vector or luciferase were used to transfect the same amount of DNA in every well. Generally, the different samples were run in triplicate for each individual experiment. Owing to the varying values for the FRET/CFP ratios based on transfection efficiency, cell density and the time point of analysis, we always set the FRET/CFP ratio of cells only transfected with the CK1 sensor to 1 in order to compare individual experiments. Importantly, the individual figures with the CK1 sensor represent only experiments performed on the same 96-well plate with the same cell density, transfection efficiency and time point.
Where applicable, the small-molecule CK1 inhibitor D4476 (BioVision) was added to the cells 2-4 h prior to the analysis. For each triplicate the respective volume of D4476 (in DMSO) was added together with 1 μl Fugene HD (Promega) to 60 μl serum-free medium. The solution was mixed, incubated for 15 min and added to the cells. […] In the corresponding controls an equal amount of DMSO instead of the inhibitor was added to the medium. Analysis was performed 48-60 h after transfection on an Infinite M1000 PRO microplate reader (Tecan) by exciting CFP with a wavelength of 433 nm and measuring the resulting emission at 460-600 nm in 2 nm increments. Fluorometric spectra were background subtracted with spectra recorded from wells with non-transfected cells. Resulting FRET/CFP ratios were calculated by dividing the intensity values at the respective peaks (478 nm for CFP, 528 nm for YFP) and analyzed essentially as described ([Fritz et al., 2013]). Where indicated, CK1δ/ε-derived peptides were transfected into cells using Metafectene (Biontex) 1 hour before measurements.

His-DDX3X^414-582 [2] = biological target: T1, His-DDX3X^414-582 (Homo sapiens, UniProt O00571); assay: Direct-binding ELISA of biotinylated CK1 peptides on coated His-DDX3X^414-582; conditions: 1 µg/well biotinylated peptide, 2.5 h, room temperature; HRP-streptavidin/ABTS, 405 nm; data normalized to δ-141 = 100%; n=3
T1 construct: contained 10 µM His-DDX3X^414-582; His; made in house; host or cells: E. coli Rosetta2 (pET28a)
Description: According to the amino acid sequences of the N-terminal and the kinase domain of human CK1δ (UniProt entry P48730), 30 CK1δ-derived peptides were generated. In order to investigate the effects of sequence-specific differences in the sequence of CK1ε (UniProt entry P49674) compared with CK1δ, seven additional CK1ε-derived peptides were generated (Fig. S2). Each peptide consists of 15 amino acids with the first and last five amino acids always overlapping the previous and the following peptide, respectively. At the N-terminus the peptides were coupled to biotin via a four amino acid spacer sequence (SGSG). For peptide position and sequence information see Fig. S2. All peptides were pre-dissolved in DMSO (final concentration of 12.5% DMSO in the peptide stock).
His-DDX3X^414-582 protein fragment was coated onto 96-well Nunc MaxiSorp plates (NUNC, Denmark) at a final concentration of 0.01 µg/µl in 100 mM sodium carbonate buffer (pH 9.6) at 4°C overnight. Unspecific binding sites were blocked with 5% FCS in PBS. Biotinylated CK1δ- and CK1ε-derived peptides (1 µg/well) were added and incubated for 2.5 h at room temperature. DMSO (0.35%) and water were used as negative controls. Detection of the bound biotinylated peptides was performed by incubation with HRP-streptavidin (1:8000 in 0.5% FCS in PBS). Finally, plates were incubated with ABTS detection reagent [50 mM potassium phosphate buffer, pH 5.7, 5% ABTS solution (1 mg/ml), 0.05% H2O2]. Absorption was measured at 405 nm after incubation for 40 min.

His-DDX3X^414-582 [3] = biological target: T1, His-DDX3X^414-582; assay: Fluorescence thermal shift (FTS) assay; type: binding; conditions: 20 µM peptide, 10 µM His-DDX3X^414-582, 50 mM HEPES pH 8, SYPRO-Orange
Procedure: FTS reactions were performed in a total volume of 20 µl in 50 mM HEPES (pH 8) and contained 10 µM His-DDX3X^414-582, a final concentration of 20 µM of each indicated CK1δ- or CK1ε-derived peptide, as well as 10×SYPRO-Orange (Invitrogen). DMSO (0.35%) and water were used as controls. Measurements were performed in a LightCycler 480 device for real-time PCR (Roche) according to the manufacturer's instructions. Respective protein melting temperatures were calculated using the protein-melting evaluation software supplied by Roche.

[4] = tested on: DDX3X-stimulated CK1ε (CK1εΔC); assay: In vitro radioactive kinase assay, DDX3X-stimulated CK1ε activity; type: biochemical, human; conditions: 0.3 µM peptide; recombinant DDX3X and CK1εΔC; CK1εΔC alone set to 1; n=3
Procedure: (§1) Kinase assays were carried out essentially as described ([Cruciat et al., 2013]). For kinase assays, full-length DDX3X protein was expressed and purified from HEK293T cells as described for the ATPase assay. Deletion constructs were purified from E. coli. The eluted proteins were visualized using Coomassie Blue and the intensity of the protein bands was measured using ImageJ. The amounts used for kinase assays were estimated based on this staining. Where indicated, dsRNA was premixed with proteins at room temperature (RT) for 15 min before subjecting samples to radioactive kinase assays. The CK1 substrate peptide […] for the kinase assay and samples was analyzed using p81 phosphocellulose (Biomol) as described ([Zhai et al., 1992]). 0.3 µM CK1δ/ε-derived and control peptides were used ([Schacherl et al., 2015]). For mass spectrometric analyses DDX3X helicase core (His-DDX3X^168-582) as well as the C-terminal helicase domain (His-DDX3X^414-582) were in vitro phosphorylated by CK1ε. Also, reactions without addition of kinase were performed and analyzed in order to correct for false-positive results. Mass spectrometry data acquisition and analysis of trypsin-digested samples were performed at the Core Unit Mass Spectrometry and Proteomics (Ulm University) essentially as described in [Meng et al. (2016)].

CK1ε = assay: In vitro radioactive kinase assay, CK1ε activity itself (no DDX3X stimulation); type: biochemical, human; conditions: 0.3 µM peptide; n=3
Procedure: as §1

[5] = tested on: DDX3X^414-582 (C-terminal helicase domain); assay: Biolayer interferometry (BLItz); type: binding, human; conditions: biotin-peptide 100 µM loaded on streptavidin chip; DDX3X^414-582 250 µM; 50 mM Tris-HCl pH 7.5, 10 mM NaCl; 60 s association/dissociation; three recordings
Procedure: Biolayer interferometry was measured on the BLItz system (Pall ForteBIO LLC). High Precision Streptavidin biosensor chips were loaded three times with 100 µM biotin-coupled CK1 peptides in 50 mM Tris-HCl (pH 7.5), 10 mM NaCl for 30 s, followed by a step to block free biotin binding sites with 10 µM biocytin. Association and dissociation times of DDX3X^414-582 (250 µM) were fixed at 60 s. Binding and dissociation curves were recorded three times.

T1 sequence (O00571 414-582): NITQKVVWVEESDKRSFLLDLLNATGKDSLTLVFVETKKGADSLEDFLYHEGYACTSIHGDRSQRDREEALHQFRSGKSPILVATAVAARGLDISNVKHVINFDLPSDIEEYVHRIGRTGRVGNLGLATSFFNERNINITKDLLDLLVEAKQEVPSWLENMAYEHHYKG

Compound | effect of transfected peptide on FRET/CFP ratio (endogenous CK1 activity) [1] | Binding to His-DDX3X^414-582 (ELISA) (His-DDX3X^414-582 [2]) | Tm shift / binding by FTS, in words (His-DDX3X^414-582 [3]) | effect of peptide on DDX3X stimulation of CK1ε kinase activity [4] | effect of peptide on CK1ε kinase activity itself (CK1ε) | size of reduction of CK1 biosensor activity relative to CK1-specific small-molecule inhibitors or DDX3X siRNA [1] | binding to C-terminal helicase domain of DDX3X (BLItz) [5]
biotin-SGSG-APPTPLTPTSHTANT [δ-341] | but not ε-1 or the negative control peptide δ-341, reduced the FRET/CFP ratio | non-binding | did not cause Tm shifts |  |  |  | 
δ-101: CK1δ-derived 15mer peptide, negative control (Biotin-SGSGSLKTVLLLADQMISR) |  | showed no binding | did not cause Tm shifts | did not interfere with the DDX3X stimulation |  |  | 
ε-41: CK1ε-derived 15mer peptide (Biotin-SGSGCVKTKHPQLHIESKF) | reduced the FRET/CFP ratio | to a lesser extent | clearly demonstrated | impaired the stimulation of CK1ε kinase activity | without affecting kinase activity itself | less pronounced | 
CC[C@H](C)[C@H](NC(=O)[C@H](CCCCN)NC(=O)[C@H](CCCNC(=N)N)NC(=O)CNC(=O)[C@H](CC(C)C)NC(=O)[C@H](CCCNC(=N)N)NC(=O)[C@H](Cc1ccc(O)cc1)NC(=O)[C@H](CCCNC(=N)N)NC(=O)[C@H](CC(N)=O)NC(=O)CNC(=O)[C@@H](NC(=O)[C@H](CCCNC(=N)N)NC(=O)[C@H](CC(C)C)NC(=O)[C@H](CCC(=O)O)NC(=O)[C@H](CCSC)NC(=O)CNC(=O)[C@H](CO)NC(=O)CNC(=O)[C@H](CO)NC(=O)CCCC[C@@H]1SC[C@@H]2NC(=O)N[C@@H]21)C(C)C)C(=O)O [δ-1] (HELM PEPTIDE1{[O=C1N[C@H]2[C@H](CS[C@H]2CCCCC(=O)[*:2])N1].S.G.S.G.M.E.L.R.V.G.N.R.Y.R.L.G.R.K.I}$$$$V2.0; C-terminus assumed) | reduced the FRET/CFP ratio | to a lesser extent | clearly demonstrated | impaired the stimulation of CK1ε kinase activity | without affecting kinase activity itself | less pronounced | strongly interacted with δ-1
δ-141: CK1δ-derived 15mer peptide (Biotin-SGSGKGNLVYIIDFGLAKK) |  | strongest binding |  |  |  |  | 
δ-91: CK1δ-derived 15mer peptide (Biotin-SGSGDLFNFCSRKFSLKTV) |  | strongest binding |  |  |  |  | 
CC[C@H](C)[C@H](NC(=O)[C@H](CCCCN)NC(=O)[C@H](CO)NC(=O)[C@H](CCC(=O)O)NC(=O)[C@@H](NC(=O)[C@H](Cc1c[nH]cn1)NC(=O)[C@H](CC(C)C)NC(=O)[C@H](CCC(N)=O)NC(=O)[C@@H]1CCCN1C(=O)[C@H](Cc1c[nH]cn1)NC(=O)[C@H](CCCCN)NC(=O)[C@@H](NC(=O)[C@H](CCCCN)NC(=O)[C@@H](NC(=O)[C@H](CS)NC(=O)CNC(=O)[C@H](CO)NC(=O)CNC(=O)[C@H](CO)NC(=O)CCCC[C@@H]1SC[C@@H]2NC(=O)N[C@@H]21)C(C)C)[C@@H](C)O)[C@@H](C)CC)C(=O)O [δ-41] (HELM PEPTIDE1{[O=C1N[C@H]2[C@H](CS[C@H]2CCCCC(=O)[*:2])N1].S.G.S.G.C.V.K.T.K.H.P.Q.L.H.I.E.S.K.I}$$$$V2.0; C-terminus assumed) | reduced the FRET/CFP ratio | to a lesser extent | clearly demonstrated | impaired the stimulation of CK1ε kinase activity | without affecting kinase activity itself | less pronounced | no binding
δ-31: CK1δ-derived 15mer peptide (Biotin-SGSGAGEEVAIKLECVKTK) |  | strongest binding |  |  |  |  | 
ε-241: CK1ε-derived 15mer peptide (Biotin-SGSGCKGYPSEFSTYLNFC; cysteine pairing not given here) |  | strongest binding |  |  |  |  | 
δ-231: CK1δ-derived 15mer peptide (Biotin-SGSGKKMSTPIEVLCKGYP) |  | to a lesser extent |  |  |  |  | 
ε-61: CK1ε-derived 15mer peptide (Biotin-SGSGGGVGIPSIKWCGAEG) |  | strongest binding |  |  |  |  | 
